The record followed here is paper PMC12056667 (Chemical Science, 2025).

Where only a bound is given, the exact number is not on record here.

In assay [1] the target is Tet(X5). In words: Fluorescence polarisation binding assay of probes with purified TDase. The note with it: 25 nM probe, 5 mM MgCl2, 1 μM FAD, 100 mM Tris pH 7.0, 0.01% Triton X-100. The procedure:
(§1) NADPH was not included to prevent turnover of the probe to the hydroxylated product, which would likely have a lower binding affinity than the initial probes. Screens were conducted in pH 7.0 buffer with addition of 0.01% Triton-X100 detergent in non-binding plates to minimise adsorption to the plate wells.[45]
(§2) Aliquots of TDases were thawed and serially diluted with the assay buffer (100 mM Tris, pH 7.0 with 0.01% Triton X-100) in a V-bottom 96-well plate (Greiner Bio-One). 12.5 μL of each concentration of enzyme was transferred in quadruplicate to a 384-well black, non-binding microtiter plate (Greiner Bio-One). Aliquots of 2 mM stock of fluorescent probes 5 and 6 in DMSO were thawed and diluted to 50 nM in the assay buffer with 2 μM FAD and 10 mM MgCl2. 12.5 μL of this solution was added to wells containing enzyme. A negative control of 12.5 μL of the probe solution with 12.5 μL of the assay buffer was included on each plate. The plate was briefly centrifuged (1000 rpm), then incubated at ambient temperature for 30 min before measuring the FP response using a PHERAstar FS microplate reader (BMG Labtech) equipped with an FP optic module (excitation = 540 ± 20 nm, Emission = 590 ± 20 nm, 200 flashes per well). ΔmP values were calculated by subtracting the average mP of the negative controls from the mP measured for each well. To calculate Kd values, the derived ΔmP values were plotted as a function of enzyme concentration and a one-site specific binding model was applied (GraphPad Prism 9.4.1).
A general note: Fluorescence polarisation rises when a labelled molecule tumbles more slowly, as on binding a larger partner.

The target in assay [2] is Tet(X7). The assay is described as above. The note with it: 25 nM probe, 5 mM MgCl2, 1 μM FAD, 100 mM Tris pH 7.0, 0.01% Triton X-100. The procedure: as §1, §2
The target of assay [3] is T1, Tet(50) (Unknown prokaryotic organism, UniProt A0A059WYP6).
T1 construct: made in house; host or cells: E. coli BL21(DE3)
The assay is described as above. The procedure:
as §1, §2

Assay [4] deals with T2, Tet(X2) (Bacteroides thetaiotaomicron, UniProt Q93L51).
T2 construct: For Tet(X2), the full-length protein was prepared rather that the Δ1–10 mutant used previously for crystallographic studies; made in house; host or cells: E. coli BL21(DE3)
The description is as above. The procedure: as §1, §2

For assay [5], the target named is T3, Tet(X4) (Escherichia coli, UniProt A0A3T0V9Y5). Description: Turnover of probe 6 (absorbance and LC-MS). Type of assay: biochemical. As to conditions: with NADPH; decrease of A400 and +16 Da species by LC-MS. As to the method:
To investigate whether fluorescent probe 6 binds to the active site of the Tet(X) enzymes, we carried out docking of the probe with Tet(X4)[8] (ESI Fig. S10 ^†). […] We thus considered that probe 6 may be hydroxylated by Tet(X4) when NADPH was added to initiate turnover. We monitored turnover of probe 6 using an absorbance-readout assay with Tet(X4) adapted from previous studies.[33] A decrease in absorbance at 400 nm was observed, consistent with hydroxylation, but was not seen in a control reaction lacking Tet(X4) (ESI Fig. S11 ^†). This observation was corroborated by LC-MS analysis of the reaction (ESI Fig. S12 ^†). Appearance of an apparently mono-hydroxylated species with mass 989.348 Da (calculated mass: 989.3504 Da) was observed, +16 Da relative to the starting material (measured mass: 973.355 Da; calculated mass: 973.3555 Da).
233 Absorbance Activity Assays […]
243 CLARIOstar Plus Microplate reader. The absorbance was monitored at wavelength […] over the […]
245 calculated by measuring the rate of change of A400 during the initial linear regime. […]
247 function of log10([Inhibitor]) in molar units, and the IC50 was determined as above. […]
252 reaction was monitored by recording the absorbance spectra between 200-800 nm at one-minute […]
261 Quenched samples were stored at -20 °C prior to analysis. Samples were analysed using a Xevo G2-XS […]

The target in assay [6] is T3, Tet(X4). In words: Fluorescence polarisation binding assay of probes with purified TDase. As to the method: as §1
as §2, with “Aliquots of 2 mM stock of fluorescent probes 5 and 6 in DMSO were thawed and diluted to 50 nM in the assay buffer with 2 μM FAD and 10 mM MgCl2.” left out

Take `CN(C)c1ccc2c(-c3ccc(NC(=S)NCC(=O)Nc4cc(N(C)C)c5c(c4O)C(=O)C4=C(O)[C@]6(O)C(=O)C(C(N)=O)=C(O)C(N(C)C)[C@@H]6C[C@@H]4C5)cc3C(=O)[O-])c3ccc(=[N+](C)C)cc-3oc2c1` (stereo partly drawn) [Probe 6, TRITC-glycyl-minocycline]: the Kd was 10.6 ± 1.3 nM in assay [1]; 40.5 ± 5.1 nM in assay [2]; more than 5000 nM in assay [3] (25 nM probe, 5 mM MgCl2, 1 μM FAD, 100 mM Tris pH 7.0, 0.01% Triton X-100); 22.4 ± 4 nM in assay [4]; 17.3 ± 1.9 nM in assay [6] (Kd, 25 nM probe, 5 mM MgCl2, 1 μM FAD, 100 mM Tris pH 7.0, 0.01% Triton X-100); 18.1 ± 2.4 nM in assay [6] (apparent Kd, with 5 mM MgCl2). Further, the Kd in assay [6] (apparent Kd, without MgCl2) is 188 ± 33 nM. Moreover, the “binding to Tet(50) (in words)” value in assay [3] (up to a concentration of 5 μM of enzyme) is recorded as “no detectable binding”. Further, the “turnover by Tet(X4) (in words)” value in assay [5] was “can be turned over”.
